The numbers were not newly measured in patent publication WO2013169007A1, “Sustained-release complex preparations for treating diabetes with improved drug compliance and method for preparing same” (priority 2012, dated 2013), which cites them from elsewhere.

In the case of `CCC1=C(C)CN(C(=O)NCCc2ccc(S(=O)(=O)NC(=O)N[C@H]3CC[C@H](C)CC3)cc2)C1=O` [glimepiride], the drug half-life entry (continuous administration) is on record as “about 9 hours”. Moreover, the “absorption by the gastrointestinal tract” value (in vivo, po) is “almost completely absorbed”.
